As usually defined, the IC50 is the concentration needed to halve the response being measured.

In this test the test system is B16F10 mouse melanoma cells. The experiment in a line: B16F10 IFNγ-induced cellular growth inhibition assay. It is filed as cell-based. Conditions: B16-F10, with 0.5 ng/mL IFNγ, read-out: B16F10 GI IC50. On the procedure: Example 229: B16F10 IFNγ-Induced Cellular Growth Inhibition Assay B16F10 mouse melanoma cells (ATCC Cat^# CRL-6475, Manassas, Va.) were seeded at a density of 500 cells per well in a 384-well clear bottom plate (Corning Cat^#3765, Corning, N.Y.) in 25 μL total volume of DMEM+10% FBS (Sigma Cat^# D6429 and Sigma Cat^# F4135, St. Louis, Mo.). Cells were allowed to adhere overnight at 37° C.+5% CO2. On the following day, 12.5 μL of mouse IFNγ (RD systems Cat^#485-MI/CF, Minneapolis, Minn.) was added to half of the plate (columns 13-24) at a concentration of 2 ng/mL for a final assay concentration of 0.5 ng/mL of IFNγ. Media only (12.5 μL of DMEM+10% FBS) was added to the remainder of the plate (columns 1-12). Next, compounds resuspended in DMSO (Sigma Cat^# D2650) at 100 mM were diluted in semi-log dilutions in DMSO ranging from 100 mM to 0.001 mM and DMSO only controls were included. The compound/DMSO dilutions were further diluted 1:250 in DMEM+10% FBS, and 12.5 μL of these dilutions were added in triplicates to cells of both treatment arms (with and without IFNγ). Final compound concentrations ranged from 100 μM to 0.001 μM with a final DMSO concentration of 0.1%. Compounds were only dosed in the inner 240 wells, avoiding the outer 2-well perimeter of the plate to minim/ze edge effects. Finally, the plate was loaded into an IncuCyte® S3 Live Cell Analysis System (Essen Bioscience-Sartorius, Ann Arbor, Mich.) maintained in a 37° C.+5% CO2 incubator, allowed to equilibrate for 2 hours, and imaged every 6 hours for 5 days. Confluence over time for compound dilutions in the presence and absence of IFNγ was measured. Growth inhibition values were obtained when the “DMSO/no IFNγ” control reached confluence >95%. At these time points, for each compound the percent growth inhibition at every compound dose level was calculated relative to the “DMSO/with IFNγ” control and used to determine the IC50.
With `O=C1CN(c2c(O)cc3c(c2F)CCCC3)S(=O)(=O)N1` [Compound 108, 5-(1-fluoro-3-hydroxy-5,6,7,8-tetrahydronaphthalen-2-yl)-1λ^6,2,5-thiadiazolidine-1,1,3-trione], the IC50 lay within 10 to 100 µM.

As for `O=C1CN(c2c(O)cc3c(c2F)CCCO3)S(=O)(=O)N1` [Compound 111, 5-(5-fluoro-7-hydroxy-3,4-dihydro-2H-1-benzopyran-6-yl)-1λ^6,2,5-thiadiazolidine-1,1,3-trione], the IC50 is 10 to 100 µM.

Take `CC1(C)CCc2c(cc(O)c(N3CC(=O)NS3(=O)=O)c2F)O1` [Compound 112, 5-(5-fluoro-7-hydroxy-2,2-dimethyl-3,4-dihydro-2H-1-benzopyran-6-yl)-1λ^6,2,5-thiadiazolidine-1,1,3-trione]: the IC50 lay in the range of 10 to 100 µM.

Consider `O=C1CN(c2c(O)cc3c(c2F)CNCC3)S(=O)(=O)N1` [Compound 143, 5-(8-fluoro-6-hydroxy-1,2,3,4-tetrahydroisoquinolin-7-yl)-1λ^6,2,5-thiadiazolidine-1,1,3-trione], for which the IC50 lay within 1 to 10 µM.

On to `CC(C)CCCN1CCc2cc(O)c(N3CC(=O)NS3(=O)=O)c(F)c2C1` [Compound 145, 5-[8-fluoro-6-hydroxy-2-(4-methylpentyl)-1,2,3,4-tetrahydroisoquinolin-7-yl]-1λ^6,2,5-thiadiazolidine-1,1,3-trione], for which the IC50 was 1 to 10 µM.

In the case of `O=C1CN(c2c(O)cc3c(c2F)CN(CCCCC(F)(F)F)CC3)S(=O)(=O)N1` [Compound 153, 5-[8-fluoro-6-hydroxy-2-(5,5,5-trifluoropentyl)-1,2,3,4-tetrahydroisoquinolin-7-yl]-1λ^6,2,5-thiadiazolidine-1,1,3-trione], the IC50 was more than 100 µM.

Turning to `O=C1CN(c2c(O)cc3c(c2F)CC(NCc2ccccn2)CC3)S(=O)(=O)N1` (stereo not shown) [Compound 155, 5-(1-fluoro-3-hydroxy-7-{[(pyridin-2-yl)methyl]amino}-5,6,7,8-tetrahydronaphthalen-2-yl)-1λ^6,2,5-thiadiazolidine-1,1,3-trione], the IC50 lay in the range of 10 to 100 µM.

Take `O=C1CN(c2c(O)cc3c(c2F)CN(CCCCCC(F)(F)F)CC3)S(=O)(=O)N1` [Compound 161, 5-[8-fluoro-6-hydroxy-2-(6,6,6-trifluorohexyl)-1,2,3,4-tetrahydroisoquinolin-7-yl]-1λ^6,2,5-thiadiazolidine-1,1,3-trione]: the IC50 lay within 10 to 100 µM.

For the molecule `O=C1CN(c2c(O)cc3c(c2F)CN(CCC2CCCCC2)CC3)S(=O)(=O)N1` [Compound 179, 5-[2-(2-cyclohexylethyl)-8-fluoro-6-hydroxy-1,2,3,4-tetrahydroisoquinolin-7-yl]-1λ^6,2,5-thiadiazolidine-1,1,3-trione], the IC50 was in the range of 1 to 10 µM.

Regarding `O=C1CN(c2c(O)cc3c(c2F)CN(Cc2ccccn2)CC3)S(=O)(=O)N1` [Compound 184, 5-{8-fluoro-6-hydroxy-2-[(pyridin-2-yl)methyl]-1,2,3,4-tetrahydroisoquinolin-7-yl}-1λ^6,2,5-thiadiazolidine-1,1,3-trione], the IC50 lay within 10 to 100 µM.

For the molecule `Cc1n[nH]c(C)c1CCN1CCc2cc(O)c(N3CC(=O)NS3(=O)=O)c(F)c2C1` [Compound 194, 5-{2-[2-(3,5-dimethyl-1H-pyrazol-4-yl)ethyl]-8-fluoro-6-hydroxy-1,2,3,4-tetrahydroisoquinolin-7-yl}-1λ^6,2,5-thiadiazolidine-1,1,3-trione], the IC50 was in the range of 1 to 10 µM.

Take `O=C1CN(c2c(O)cc3c(c2F)CN(CCCC2CCOCC2)CC3)S(=O)(=O)N1` [Compound 196, 5-{8-fluoro-6-hydroxy-2-[3-(oxan-4-yl)propyl]-1,2,3,4-tetrahydroisoquinolin-7-yl}-1λ^6,2,5-thiadiazolidine-1,1,3-trione]: the IC50 fell in the range of 1 to 10 µM.

`O=C1CN(c2c(O)cc3c(c2F)C[C@H](NCCC2CC(F)(F)C2)CC3)S(=O)(=O)N1` [Compound 202, 5-[(7R)-7-{[2-(3,3-difluorocyclobutyl)ethyl]amino}-1-fluoro-3-hydroxy-5,6,7,8-tetrahydronaphthalen-2-yl]-1λ^6,2,5-thiadiazolidine-1,1,3-trione]: the IC50 is less than 1 µM.

Source of the values: patent publication US10851073B2, “Protein tyrosine phosphatase inhibitors and methods of use thereof” (Calico Life Sciences LLC, priority 2019, dated 2020).
